{
  "source": "patent US7465730B2",
  "about": "“Treatment of neuropathic pain with 6H-pyrrolo[3,4-d]pyridazine compounds” (Merck & Co. Inc., priority 2002, dated 2008)",
  "system": "nerve injury-induced tactile allodynia",
  "assay": "Spinal nerve ligation model (Chung model) of neuropathic pain",
  "format": "in vivo, Male Sprague Dawley rats",
  "conditions": "rat",
  "from_the_text": "The spinal nerve ligation model of neuropathic pain was used to assess the effects of test compounds on nerve injury-induced tactile allodynia (S. H. Kim and J. M. Chung, Pain 50:355-363(1992)). Male Sprague Dawley rats (175-200 g) received unilateral tight ligation of the left L5/L6 spinal nerves distal to the dorsal root ganglion using 4-0 silk suture. Behavioral-nociceptive testing occurred 7-14 days following spinal nerve ligation by placing the rats in chambers on a wire mesh. Rats were tested for tactile allodynia (decreased hindpaw withdrawal threshold to non-noxious punctate stimulation) by applying a series of calibrated von Frey filaments to the plantar aspect of the left hindpaw ipsilateral to the site of nerve injury. The mean 50% hindpaw withdrawal threshold (g.) was determined using the Dixon “up-down” non-parametric test (Chaplan et al., J. Neurosci. Methods, 53:55-63(1994)). […] Following determination of pre-drug withdrawal thresholds, rats received either an i.p. or p.o. injection of test compound. The effect of the test compound on tactile allodynia was determined over time by measuring hindpaw withdrawal thresholds 30, 60, 90, 120 min post-injection. In above model, EXAMPLE 1 produced a 65% effect after i.p. dosing at 30 mg/kg, EXAMPLE 50 produced a 100% effect after i.p. dosing at 20 mg/kg, EXAMPLE 115 produced a 60% effect after i.p. dosing at 30 mg/kg i.p.",
  "data": [
    {"smiles": "CCOc1ccc(-n2c(C)c3c(C)nnc(-c4ccc(OC)cc4)c3c2C)cc1", "note": "[EXAMPLE 1, 6-(4-ethoxyphenyl)-1-(4-methoxyphenyl)-4,5,7-trimethyl-6H-pyrrolo[3,4-d]pyridazine]", "values": [
      {"measurement": "effect on tactile allodynia (hindpaw withdrawal threshold)", "setting": "i.p. dosing at 30 mg/kg", "result": 65, "unit": "%"}
    ]},
    {"smiles": "CCOc1ccc(-n2c(C)c3c(C)nnc(C)c3c2C)cc1", "note": "[EXAMPLE 50, 6-(4-ethoxyphenyl)-1,4,5,7-tetramethyl-6H-pyrrolo[3,4-d]pyridazine]", "values": [
      {"measurement": "effect on tactile allodynia (hindpaw withdrawal threshold)", "setting": "i.p. dosing at 20 mg/kg", "result": 100, "unit": "%"}
    ]},
    {"smiles": "CCOc1ccc(-n2c(C)c3c(C)nnc(NC4CCc5ccccc54)c3c2C)c(OC)c1", "note": "(stereo not drawn) [EXAMPLE 115, N-(2,3-dihydro-1H-inden-1-yl)-6-(4-ethoxy-2-methoxyphenyl)-4,5,7-trimethyl-6H-pyrrolo[3,4-d]pyridazin-1-amine]", "values": [
      {"measurement": "effect on tactile allodynia (hindpaw withdrawal threshold)", "setting": "i.p. dosing at 30 mg/kg", "result": 60, "unit": "%"}
    ]}
  ]
}
